Reference: PMC8831520, “Small molecule SWELL1 complex induction improves glycemic control and nonalcoholic fatty liver disease in murine Type 2 diabetes” (Nature Communications, 2022)
“Also recorded” adds a separate entry of the source.

What was measured:
Assay type in all cases: in vivo, mouse
eWAT adipocytes = assay: Adipocyte size in eWAT of treated mice; settings: 5 days, vs vehicle
Procedure: Mice epididymal white adipose tissue (eWAT) was isolated and fixed in 10% neutral buffer formalin for 24 h at 4 °C. The formalin-fixed eWAT tissue was washed twice with 1XPBS buffer and dehydrated in a series of ethanol gradient. The dehydrated tissue was embedded in paraffin wax and 10 μm sections were cut by automated microtome and mounted on positively charged slides. Hematoxylin and eosin staining of the slides was performed at the Musculoskeletal Research Center, Washington University in St. Louis. Images were captured by Zeiss Axioscop with 10X objective and analyzed by ImageJ software. Measurement of adipocyte area was performed using the polygon selection tool of ImageJ. All quantifications were performed by blinded independent observers.

[1] = Tolerability of chronic i.p. dosing; settings: daily i.p. injections for up to 8 weeks
Procedure: All compounds were dissolved in Kolliphor® EL (Sigma, #C5135).

T2D KKAy mice = assay: Euglycemic hyperinsulinemic clamp with tracers
Procedure: Sterile silicone catheters (Dow-Corning) were placed into the jugular vein of mice under isoflurane anesthesia. The placed catheter was flushed with 200 U/mL heparin in saline and the free end of the catheter was directed subcutaneously via a blunted 14-gauge sterile needle and connected to a small tubing device that exited through the back of the animal. […] Hyperinsulinemic euglycemic clamps were performed on day 8 post-surgery on unrestrained, conscious mice as described elsewhere[82],[83], with some modifications. Mice were fasted for 6 h at which time insulin and glucose infusion were initiated (time 0). At 80 min prior to time 0 basal sampling was conducted, where whole-body glucose flux was traced by infusion of 0.05 μCi/min D-[3-^3H]-glucose (Perkin Elmer), after a priming 5 μCi bolus for 1 min. After the basal period, starting at time 0 D-[3-^3H]-glucose was continuously infused at the rate of 0.2 μCi/min and the infusion of insulin (Humulin, Eli Lilly) was initiated with a bolus of 80 mU/kg/min (10 µl volume for 1 min) then followed by continuous infusion of insulin at the dose of 8 mU/kg/min throughout the assay. Fifty percent dextrose (Hospira) was infused at variable rates (GIR) starting at the same time as the initiation of insulin infusion to maintain euglycemia at the targeted level of 150 mg/dL (8.3 mM). Blood glucose (BG) measurements were taken every ten minutes via tail vein sampling using a Contour glucometer (Bayer). After the mouse reached stable BG and GIR (typically, after 75 min since starting the insulin infusion; for some mice, a long time was required to achieve steady-state) a single bolus of 12 μCi of [1-^14C]-2-deoxy-D-glucose (Perkin Elmer) in 96 μl of saline was administered. Plasma samples (collected from centrifuged blood) for determination of tracers enrichment, glucose level, and insulin concentration were obtained at times −80, −20, −10, 0, and every 10 min starting at 80 min post-insulin (5 min after [1-^14C]-2-deoxy-D-glucose bolus was administered) until the conclusion of the assay at 140 min. Tissue samples were then collected from mice under isofluorane anesthesia from organs of interest (e.g., liver, heart, kidney, white adipose tissue, brown adipose tissue, gastrocnemius, soleus, etc.) for determination of 1-^14C]-2-deoxy-D-glucose tracer uptake. Plasma and tissue samples were processed as described previously. Briefly, plasma samples were deproteinized with Ba(OH)2 and ZnSO4 and dried to eliminate tritiated water. The glucose turnover rate (mg/kg-min) was calculated as the rate of tracer infusion (dpm/min) divided by the corrected plasma glucose specific activity (dpm/mg) per kg body weight of the mouse. Fluctuations from steady-state were accounted for by the use of Steele’s model. Plasma glucose was measured using the Analox GMD9 system (Analox Technologies).
Tissue samples (~30 mg each) were homogenized in 750 µl of 0.5% perchloric acid, neutralized with 10 M KOH, and centrifuged. The supernatant was then used for first measuring the abundance of total [1-^14C] signal (derived from both 1-^14C -2-deoxy-D-glucose, 1-^14C -2-deoxy-D-glucose 6 phosphate) and, following a precipitation step with 0.3 N […] and 0.3 N ZnSO4, for the measuring of non-phosphorylated 1-^14C -2-deoxy-D-glucose. Glycogen was isolated by ethanol precipitation from 30% KOH tissue lysates, as described. Insulin levels in plasma at T0 and T140 were measured using a Stellux ELISA rodent insulin kit (Alpco).

With `CCCCC1(C2CCCC2)Cc2cc(OCCCC(=O)O)c(Cl)c(Cl)c2C1=O` (centres unmarked) [SN-401, 4-((2-butyl-6,7-dichloro-2-cyclopentyl-1-oxo-2,3-dihydro-1H-inden-5-yl)oxy)butanoic acid] the adipocyte size (eWAT adipocytes; HFD-fed mice) was “unchanged; also recorded: no significant differences”, the adipocyte size reduction (eWAT adipocytes; KKAy mice) was 9% and the tolerability [1] was “no overt signs of toxicity”. The “glucose incorporation into glycogen in liver, adipose, and skeletal muscle” value (T2D KKAy mice; KKAy mice) was “markedly increased”, the “insulin-stimulated 2-DG uptake into iWAT, gWAT and myocardium” value (T2D KKAy mice; KKAy mice) was “enhanced” and the “glucose-infusion rate (GIR) to maintain euglycemia” value (T2D KKAy mice; KKAy mice, 5 mg/kg i.p. 4 days, vs vehicle) was “higher”. The “reduction of rate of glucose appearance (Ra)” value (T2D KKAy mice; baseline (Basal)) was 40% and the “suppression of rate of glucose appearance (Ra)” value (T2D KKAy mice; during glucose/insulin infusion (Clamp)) was 75%.
